Laboratory results taken from PMC4496089, “Screening for FtsZ Dimerization Inhibitors Using Fluorescence Cross-Correlation Spectroscopy and Surface Resonance Plasmon Analysis” (PLoS ONE, 2015).
In brackets after ≈: the same amount, converted by molar mass. Entries after “also recorded” stand apart in the source; their conditions may differ. Read-outs that look alike come from different tables or passages of the source.

Columns and labels:
[1] = test system: S. aureus ATCC 29213 (MSSA); experiment: Antibiotic susceptibility test (broth microdilution MIC); format: cell-based, Staphylococcus aureus; details: for MIC: Staphylococcus aureus, read-out: Minimal inhibitory concentration
Experimental: (§1) Antimicrobial susceptibility testing was performed by broth microdilution in cation-adjusted Mueller–Hinton broth (CAMHB) according to the CLSI guidelines. Overnight culture was suspended in CAMHB, and the OD625 was measured using an Ultrospec 6300 pro spectrophotometer (GE Healthcare). The culture suspension was diluted to 0.01 of the OD625, and 5 μL of it was inoculated into test medium containing the test chemical. Then incubation was performed at 35°C for 16 to 20 hours. The final inoculum size corresponded to ca. 5 x 10^4 CFU per well, which corresponded to ca. 5 x 10^5 CFU/mL. The minimum inhibitory concentration (MIC) endpoint was defined as the lowest concentration of the test chemical that inhibited bacterial growth as detected by the unaided eye.

[2] = test system: S. aureus FtsZ (FtsZ^K175D_N-terminal-EGFP and FtsZ_C-terminal-mCherry); experiment: FCCS screening for inhibition of GTP-dependent head-to-tail dimerization of fragmented FtsZ; format: biochemical, Staphylococcus aureus; details: from FCCS binding ratio; chemical 20 or 100 μM, GTP 2 mM, 30 min; mean (SD), n = 3
Experimental: The purified FtsZ^K175D_N-terminal-EGFP and FtsZ_C-terminal-mCherry were mixed in 0.44–0.85 μM each in a buffer composed of 50 mM Tris-HCl [pH 8.0], 500 mM Na2SO4 and 5 mM MgCl2. Mixed samples were dispensed as 48.5 μL aliquots into a 384-well glass bottom microplate (Olympus) and a 0.5 μL aliquot of the chemical at a concentration of 2 or 10 mM was added to each well. The final concentration of the chemicals was 20 or 100 μM. After mixing, FCCS measurement was performed (premeasurement, data not shown). After premeasurement of FCCS, 1 μL of GTP (100 mM) was added to each well (final concentration: 2 mM). After mixing and 30 min incubation at room temperature, FCCS measurement was performed. Using samples purified on a different day, independent screening was performed 3 times.
The data acquired from FCCS were analyzed using ZEN software (Zeiss, Germany). The fluorescence autocorrelation functions from the green, G G (τ), and red channels, G R (τ), and the fluorescence cross-correlation functions, G C (τ) were calculated according to the normalized correlation function. GG(τ)=1+⟨δIG(t)⋅δIG(t+τ)⟩/⟨IG(t)⟩⋅⟨IG(t)⟩ (1) GR(τ)=1+⟨δIR(t)⋅δIR(t+τ)⟩/⟨IR(t)⟩⋅⟨IR(t)⟩ (2) GC(τ)=1+⟨δIG(t)⋅δIR(t+τ)⟩/⟨IG(t)⟩⋅⟨IR(t)⟩ (3) where τ denotes the time delay, I G is the fluorescent intensity of the green channel, and I R is the fluorescent intensity of the red channel. The acquired autocorrelations were fitted using a two-component model, and cross-correlation was fitted using a one-component model. G(τ)=1+1−Ftriplet+Ftripletexp(−τ/τtrplet)/N(1−Ftriplet)×((Ffast/1+τ/τfast)1/1+τ/s^2τfast+(Fslow/1+τ/τslow)1/1+τ/s^2τslow) (4) where F triplet is the average fraction of triplet state molecules (in the fitting of cross-correlation, assuming F triplet is 0), τ triplet is the triplet relaxation time, and F fast and F slow are the fractions of the fast and slow components, respectively. τ fast and τ slow are the diffusion times of the fast and slow components, respectively. In the fitting of G G (τ), τ fast was fixed in the range from 100 to 200 μs. In the fitting of G R (τ), τ fast was fixed in the range from 200 to 300 μs. N is the average number of fluorescent particles in the excitation-detection volume defined by radius w, z is half of the long axis of the confocal volume element, and s is the structural parameter representing the ratio s = z/w. The values of w i (i = G or R) are determined from the diffusion coefficients of the rhodamine 6G and Alexa Fluor 594 used as standard dyes, respectively.
The average number calculated from autocorrelation N G and N R and complex cross-correlated particles N C is given by NG=1/GG(0)−1 (5) NR=1/GR(0)−1 (6) NC=GC(0)−1/(GR(0)−1)⋅(GG(0)−1) (7)
The binding ratio (BR), which directly indicates the tendency of interaction between FtsZ^K175D_N-terminal-EGFP and FtsZ_C-terminal-mCherry, was defined by the following Eq (8). When a chemical has a higher inhibitory effect, BR should be lower. BR=NC/NG (8)
Moreover, inhibition % was calculated using the following Eq (9). The inhibition % should be higher when the chemical has a higher inhibitory effect. inhibition%=BRDMSO,GTP(+)−BRchemical,GTP(+)/BRDMSO,GTP(+)×100 (9) where BR DMSO,GTP(+) is the binding ratio in the presence of DMSO (vehicle) and GTP is the control value indicating no inhibition, BR chemical,GTP(+) is the binding ratio in the presence a chemical and GTP. Considering the background, Eq (9) can be shown as follows. inhibition%=(BRDMSO,GTP(+)−BRbackground)−(BRchemical,GTP(+)−BRbackground)/BRDMSO,GTP(+)−BRbackground×100=BRDMSO,GTP(+)−BRchemical,GTP(+)/BRDMSO,GTP(+)−BRbackground×100 (10) where BR background is the binding ratio of the background obtained in the absence of GTP.

[3] = test system: panel of type strains of Gram-positive and Gram-negative bacterial pathogens; experiment: Antibiotic susceptibility test, summary over the whole panel; format: cell-based; details: MIC panel of Gram-positive and Gram-negative type strains
Experimental: as §1

P. aeruginosa ATCC 27853 = experiment: Antibiotic susceptibility test (broth microdilution MIC); format: cell-based; details: Pseudomonas aeruginosa
Experimental: as §1

A. baumannii ATCC 19606 = experiment: as above; format: cell-based; details: Acinetobacter baumannii
Experimental: as §1

E. coli ATCC 25922 = experiment: as above; format: cell-based; details: Escherichia coli
Experimental: as §1

E. faecalis SR7914 (VRE) = experiment: as above; format: cell-based; details: Enterococcus faecalis, read-out: Minimal inhibitory concentration
Experimental: as §1

S. pneumoniae Type I = experiment: as above; format: cell-based; details: Streptococcus pneumoniae, read-out: Minimal inhibitory concentration
Experimental: as §1

S. aureus SR3637 (MRSA) = experiment: as above; format: cell-based; details: Staphylococcus aureus, read-out: Minimal inhibitory concentration
Experimental: as §1

E. faecalis ATCC 29212 = experiment: as above; format: cell-based; details: Enterococcus faecalis
Experimental: as §1

K. pneumoniae ATCC 13883 = experiment: as above; format: cell-based; details: Klebsiella pneumoniae
Experimental: as §1

H. influenzae ATCC 10211 = experiment: as above; format: cell-based; details: Haemophilus influenzae
Experimental: as §1

E. faecium ATCC 19434 = experiment: as above; format: cell-based; details: Enterococcus faecium
Experimental: as §1

E. faecium SR7917 (VRE) = experiment: as above; format: cell-based; details: Enterococcus faecium, read-out: Minimal inhibitory concentration
Experimental: as §1

[4] = S. aureus ATCC 29213 (MSSA), CAMHB, 35°C, 16 to 20 hours
[5] = ATCC27853, P. aeruginosa ATCC 27853, CAMHB, 35°C, 16 to 20 hours, read-out: Minimal inhibitory concentration
[6] = ATCC19606, A. baumannii ATCC 19606, CAMHB, 35°C, 16 to 20 hours, read-out: Minimal inhibitory concentration
[7] = ATCC25922, E. coli ATCC 25922, CAMHB, 35°C, 16 to 20 hours, read-out: Minimal inhibitory concentration
[8] = E. faecalis SR7914 (VRE), CAMHB, 35°C, 16 to 20 hours
[9] = S. pneumoniae Type I, CAMHB, 35°C, 16 to 20 hours
[10] = S. aureus SR3637 (MRSA), CAMHB, 35°C, 16 to 20 hours
[11] = ATCC29212, E. faecalis ATCC 29212, CAMHB, 35°C, 16 to 20 hours, read-out: Minimal inhibitory concentration
[12] = ATCC13883, K. pneumoniae ATCC 13883, CAMHB, 35°C, 16 to 20 hours, read-out: Minimal inhibitory concentration
[13] = ATCC10211, H. influenzae ATCC 10211, CAMHB, 35°C, 16 to 20 hours, read-out: Minimal inhibitory concentration
[14] = ATCC19434, E. faecium ATCC 19434, CAMHB, 35°C, 16 to 20 hours, read-out: Minimal inhibitory concentration
[15] = E. faecium SR7917 (VRE), CAMHB, 35°C, 16 to 20 hours

| Compound | inhibition % [2] | MIC [1, 4] [µg/mL] | MIC (P. aeruginosa ATCC 27853; [5]) [µg/mL] | MIC (A. baumannii ATCC 19606; [6]) [µg/mL] | MIC (E. coli ATCC 25922; [7]) [µg/mL] | MIC (E. faecalis SR7914 (VRE); [8]) [µg/mL] | MIC (S. pneumoniae Type I; [9]) [µg/mL] | MIC (S. aureus SR3637 (MRSA); [10]) [µg/mL] | MIC (E. faecalis ATCC 29212; [11]) [µg/mL] | MIC (K. pneumoniae ATCC 13883; [12]) [µg/mL] | MIC (H. influenzae ATCC 10211; [13]) [µg/mL] | MIC (E. faecium ATCC 19434; [14]) [µg/mL] | MIC (E. faecium SR7917 (VRE); [15]) [µg/mL] | also measured |
| --- | --- | --- | --- | --- | --- | --- | --- | --- | --- | --- | --- | --- | --- | --- |
| COCCN(CCOC)P1(=O)C=C(c2ccccc2)SC(c2ccccc2)=C1 [Chemical #2] | 69.0 (2.4) % |  |  |  |  |  |  |  |  |  |  |  |  | MIC [1]: 8 µg/mL (≈ 19.3 µM); antibacterial activity (in words) [3]: inhibited the growth of Staphylococcus spp. and Enterococcus spp; also recorded: no activity against other Gram-positive species or any of the Gram-negative pathogens tested; MIC (P. aeruginosa ATCC 27853; ATCC27853, read-out: Minimal inhibitory concentration): > 64 µg/mL; MIC (A. baumannii ATCC 19606; ATCC19606, read-out: Minimal inhibitory concentration): > 64 µg/mL; MIC (E. coli ATCC 25922; ATCC25922, read-out: Minimal inhibitory concentration): > 64 µg/mL; MIC (E. faecalis SR7914 (VRE); VRE): 32 µg/mL (≈ 77 µM); MIC (S. pneumoniae Type I): 64 µg/mL (≈ 154 µM); MIC (S. aureus SR3637 (MRSA); MRSA): 8 µg/mL (≈ 19.3 µM); MIC (E. faecalis ATCC 29212; ATCC29212, read-out: Minimal inhibitory concentration): 32 µg/mL (≈ 77 µM); MIC (K. pneumoniae ATCC 13883; ATCC13883, read-out: Minimal inhibitory concentration): > 64 µg/mL; MIC (H. influenzae ATCC 10211; ATCC10211, read-out: Minimal inhibitory concentration): > 64 µg/mL; MIC (E. faecium ATCC 19434; ATCC19434, read-out: Minimal inhibitory concentration): > 64 µg/mL; MIC (E. faecium SR7917 (VRE); VRE): > 64 µg/mL |
| COc1ccc(C2C=C(c3ccc(Br)cc3)N=C3NC(NS(C)(=O)=O)=NN32)cc1 (centres unmarked) [Chemical #1] | 88.6 (6.8) % | > 64 | > 64 | > 64 | > 64 | > 64 | > 64 | > 64 | > 64 | > 64 | > 64 | > 64 | > 64 |  |
| O=C(NNC(=S)NC1CC2CCC1C2)c1cc2ccccc2cc1O (centres unmarked) [Chemical #4] | 64.4 (5.8) % | > 32 | > 32 | > 32 | > 32 | > 32 | > 32 | > 32 | > 32 | > 32 | > 32 | > 32 | > 32 |  |
| O=C(c1cccc(-n2cnnc2)c1)N1CC2CCC(Cc3cccc(Cl)c3)C2C1 (centres unmarked) [Chemical #5] | 46.7 (11.4) % | > 64 | > 64 | > 64 | > 64 | > 64 | > 64 | > 64 | > 64 | > 64 | > 64 | > 64 | > 64 |  |
| C[C@@H](O)[C@H]1C(=O)N2C(C(=O)O)=C(S[C@@H]3CN[C@H](CNS(N)(=O)=O)C3)[C@H](C)[C@H]12 [Doripenem, reference compound] |  | ≤ 0.063 | 0.5 (≈ 1.19 µM) | 1 (≈ 2.38 µM) | ≤ 0.063 | 8 (≈ 19 µM) | ≤ 0.063 | 16 (≈ 38 µM) | 1 (≈ 2.38 µM) | 0.125 (≈ 0.297 µM) | 0.125 (≈ 0.297 µM) | 8 (≈ 19 µM) | 64 (≈ 152 µM) | Minimal inhibitory concentration [1, 4]: ≦0.063 μg/mL |
| CS(=O)(=O)NC1=NN2C(=NC(c3ccccc3)=CC2c2ccccc2Cl)N1 (centres unmarked) [Chemical #6] | 40.9 (1.2) % | > 64 | > 64 | > 64 | > 64 | > 64 | > 64 | > 64 | > 64 | > 64 | > 64 | > 64 | > 64 |  |
| O=C(NNS(=O)(=O)c1cc(Cl)ccc1Cl)c1cc2c(s1)CCCC2 [Chemical #3] | 68.5 (1.7) % | > 64 | > 64 | > 64 | > 64 | > 64 | > 64 | > 64 | > 64 | > 64 | > 64 | > 64 | > 64 |  |
